The subject of experiment [1] is CD22 surface expression in JB cells. In words: CD22 surface expression assay, AIDS-NHL cell line JB. Conditions: 1 nM or 10 nM, 48 hours.
Description: (§10) AIDS-NHL cell lines were incubated in IF10 medium, consisting of IMDM medium (Life technologies) containing 10% fetal bovine serum (FBS, Omega Scientific), 100 units/mL of penicillin, and 100 μg/ml of streptomycin (Invitrogen). Cells were incubated at 37° C. in 5% CO2.
(§11) Cells were exposed to compound for the either 24 or 48 h before staining and flow cytometric analysis of receptor levels.
(§12) Cells in each well were washed with phosphate buffered saline (PBS) containing 2% FBS, then cells were centrifuged for 9 min at 233 xg and resuspended in 50 μL of a 1:1 dilution of phosphate buffered saline (PBS): Human AB serum (Sigma). […] Stained samples were stored at 4° C. Flow cytometry samples were analyzed using a FACSCelesta (BD Biosciences) flow cytometer and data were analyzed using FlowJo software (version 10).
(§13) Panel C: JB cells were incubated with 1 nM (left hand bars) or 10 nM (right hand bars) of compound for 48 hours. CD22 surface expression was then assayed by flow cytometry (n=6 biological replicates; data presented as mean values ±SE). Panel D: 2F7 cells were incubated with 1 nM (left hand bars) or 10 nM (right hand bars) of compound for 48 hours. CD22 surface expression was then assayed by flow cytometry (n=6 biological replicates; data presented as mean values ±SE).
The next experiment has as its system NALM6 tumor cells. In words: NSG mice with NALM6 tumor cells treated with CD22 CAR T cells plus bryostatin 1. The note with it: NALM6 tumor cells day 0, CD22 CAR day 3, bryostatin 1 three times weekly for 2 weeks.
The next experiment deals with T1, PKCα (Homo sapiens, UniProt P17252).
T1 construct: purchased Invitrogen
In words: cell-free competitive PKC binding assay with [3H]-phorbol dibutyrate. Conditions: competition with [3H]-PDBu, recombinant human PKC isoform. As for the experimental part:
(§1) Because a prerequisite for PKC pathway involvement is binding to PKC, compounds were initially evaluated for PKC affinity in a cell-free competitive binding assay with tritiated phorbol dibutyrate ([^3H]-PDBu). Assays were performed with representative members of both the conventional (PKCα) and novel (PKCδ) PKC families. Subsequently, compounds were assayed for PKC activation in living cells using an isoform translocation assay.
(§2) To a 50 mL polypropylene tube was added Tris-HCl (pH 7.4, 1 M, 1 mL), KCl (1 M, 2 mL), CaCl2) (0.1 M, 30 μL), and bovine serum albumin (BSA, 40 mg, Sigma-Aldrich). This mixture was diluted to 20 mL with deionized H2O and mixed gently. The buffer was stored on ice until use.
(§3) For every two assays, 3.5 mg phosphatidylserine (Avanti Polar Lipids, porcine, 25 mg/mL CHCl3 solution) was concentrated by removing chloroform under a stream of nitrogen followed by reduced pressure. The solid PS was suspended as vesicles in freshly prepared PKC binding assay buffer (3.5 mL) by sonicating six times for 30 sec, with a 30 sec rest between sonications (Branson Sonifier 250, power=2, 50% duty cycle). The resulting milky cloudy mixture (1 mg/mL) was stored on ice until use.
(§4) Assay PKC was prepared by dissolving a 4 μg aliquot of the indicated recombinant human PKC isoform (Invitrogen) into 11.6 mL of PKC binding assay buffer (this amount is sufficient for two assays). The diluted PKC was stored on ice for immediate use.
(§5) ^3H-PDBu (American Radiolabeled Chemicals, Inc.; 1 mCi/mL acetone solution; specific activity: 20 Ci/mmol) was diluted […] with DMSO. The resulting 500 nM stock solution was further diluted with DMSO to 30 nM.
(§6) Compound dilutions were prepared by serially diluting from a chosen “high” concentration by factors of 3 or 4.
(§7) To a polypropylene tube was added 3.3 mL of 1 mg/mL PS vesicles solution, 11 mL of PKC isoform solution, and 1.1 mL of 30 nM ^3H-PDBu solution were added. The resulting solution was vortexed to mix and stored on ice.
(§8) Materials: • Glass-fiber filters (Whatman GF/B) were prepared by soaking them in a solution of aqueous polyethyleneimine (10% by vol, 18 mL) in deionized water (600 mL) for ≥1 h. • 500 mL “rinsing buffer” of 20 mM Tris, pH 7.4 was cooled on ice for the duration of the incubation period and for the remainder of the assay.
(§9) Triplicate data points were obtained for each analog concentration. For each data point, 280 μL of “Master Mix” Solution and 20 μL of analog compound at a specified concentration were added to a polypropylene tube. […] Maximal ^3H-PDBu binding was assessed in triplicate by substitution of the analog compound with 20 μL DMSO. The solutions were vortexed to mix, incubated at 37° C. for 10 min, and incubated on ice for at least 30 min prior to filtration. Using a Brandel Harvester, the assay contents from each polypropylene tube were vacuum-filtered through polyethylenimine-soaked filters, washing with rinsing buffer (3×) and drying first under vacuum for 5 min and then under ambient conditions for ≥2 h. The resulting filters had circular perforations for each data point, which were removed with forceps and placed in a scintillation vial. Scintillation vials were filled with Bio-Safe II scintillation fluid (5 mL) and measured for radioactivity using a Beckman LS 6000SC scintillation counter. Counts per minute (cpm) were averaged for each triplicate dilution. The data were plotted—cpm vs. log(concentration)—using Prism® by GraphPad Software and an IC50 was determined using that program's built-in one-site competition least squares regression function. Ki values were calculated using the equation: Ki=IC50/(1+([3H−PDBu]/Kd)). The Kd of ^3H-PDBu for PKC isoforms was measured separately via saturation binding experiments under identical conditions.

A further experiment relates to PKC. Description: cell-free PKC binding assay, isoform not given. Also noted: species or system human. Here is the method:
as §1, §4, §9

Experiment [2] deals with CD22 surface expression in 2F7 cells. Description: CD22 surface expression assay, AIDS-NHL cell line 2F7. The note with it: 1 nM or 10 nM, 48 hours.
Description: as §10, §11, §12, §13
Experiment [3] relates to CD22 surface expression in NALM6 cells. Description: CD22 surface expression assay by flow cytometry. It is filed as cell-based, human. As for the experimental part:
Cell cultures were maintained between 4×10^5 and 3×10^6 cells/mL according to vendor instructions.
Cell suspension from a confluent T75 flask (Fisher) was transferred to a 15 mL falcon tube and centrifuged at 1100 rpm for 7 minutes. […] Cells were counted using a Countess II Automated Cell Counter (Fisher). […] 199 μL of this stock was added to 24 wells (enough for triplicate measurements for 8 different experimental conditions) in a 96-well plate. […] 1 μL of DMSO or the appropriate stock solution of compound in DMSO was added to each well. Cells were incubated for 24 hours, at which point the cell suspensions were transferred to 1.5 mL Eppendorf tubes and diluted with 1.0 mL of PBS (Hyclone, without Ca^2+ or Mg^2+). Samples were centrifuged at 2000 rpm for 5 min at RT. […] Cells were sub-cultured between 2×10^5 and 3×10^6 cells/mL in 24-well plates for an additional 24 hrs-7 days, at which point CD22 surface expression was assayed by flow cytometry.
Cells from one well were counted using a Countess II Automated Cell Counter (Fisher). ˜200,000-300,000 cells from each well were added to 1.5 mL Eppendorf tubes containing PBS (final volume ˜1.2 mL). The cell suspensions were centrifuged at 1500 rpm for 7 minutes at 4° C. The supernatant was aspirated, and the cell pellet was resuspended in 99 μL of pre-chilled FACS buffer (0.5% w/v BSA in PBS). […] Samples were then diluted with an additional 1.0 mL of FACS buffer and centrifuged at 1500 rpm for 7 minutes at 4° C. […] Cells were stained with DAPI and CD22 surface expression was analyzed using the FACScan Analyzer at the Stanford Shared FACS Facility. Data analysis was performed using FlowJo and Microsoft Excel.

Another experiment deals with T2, PKCδ (Homo sapiens, UniProt Q05655).
T2 construct: purchased Invitrogen
Description: cell-free competitive PKC binding assay with [3H]-phorbol dibutyrate. Conditions: competition with [3H]-PDBu, recombinant human PKC isoform. Here is the method:
as §1, §2, §3, §4, §5, §6, §7, §8
Triplicate data points were obtained for each analog concentration. For each data point, 280 μL of “Master Mix” Solution and 20 μL of analog compound at a specified concentration were added to a polypropylene tube. […] Maximal ^3H-PDBu binding was assessed in triplicate by substitution of the analog compound with 20 μL DMSO. The solutions were vortexed to mix, incubated at 37° C. for 10 min, and incubated on ice for at least 30 min prior to filtration. Using a Brandel Harvester, the assay contents from each polypropylene tube were vacuum-filtered through polyethylenimine-soaked filters, washing with rinsing buffer (3×) and drying first under vacuum for 5 min and then under ambient conditions for ≥2 h. The resulting filters had circular perforations for each data point, which were removed with forceps and placed in a scintillation vial. Scintillation vials were filled with Bio-Safe II scintillation fluid (5 mL) and measured for radioactivity using a Beckman LS 6000SC scintillation counter. Counts per minute (cpm) were averaged for each triplicate dilution. The data were plotted—cpm vs. log(concentration)—using Prism® by GraphPad Software and an IC50 was determined using that program's built-in one-site competition least squares regression function. […] The Kd of ^3H-PDBu for PKC isoforms was measured separately via saturation binding experiments under identical conditions.

A further experiment concerns PKCδ-GFP fusion protein. In words: PKCδ-GFP translocation assay in living CHO-k1 cells (confocal microscopy). It is filed as cell-based, Chinese hamster. Conditions: for cytosolic PKC translocated to the plasma membrane: 1000 nM, at about 5 minutes; for concentration* (minimum effective concentration required to induce translocation of PKC-GFP to the membrane) / % Translocation: CHO-k1 cells; for % Translocation: maximum translocation of PKCδ-GFP to the plasma membrane at the concentration printed in the same cell, SUW212: only brief translocation observed. As for the experimental part: as §1
Chinese hamster ovary factor K1 (CHO-k1, ATCC) cells were cultured in F-12 Kaighn's media (Hyclone, 10% fetal bovine serum, 1% penicillin/streptomycin added, referred to as F-12+/+ below) at 37° C. in an incubator (5% CO2). Cell cultures were maintained by splitting cells 1:3 when they reached ˜75-100% confluence (every 2-3 days) as follows:
1 mL of the cell suspension was then added to 9 mL of fresh F-12+/+ and the sample was sub-cultured until reaching confluence (˜2-3 days).
Cells were counted using a Countess II Automated Cell Counter (Fisher). The cell suspension was diluted to 240,000 cells/mL with fresh F-12+/+ and 2.5 mL of this diluted stock was added to one well in a 6-well plate. The cells were then cultured for 24 hours.
F-12+/+ was aspirated and cells were washed with F-12−/−. 2 mL of fresh F-12−/− was then added to each well, taking care not to disturb adherent cells. For each well of CHO-k1 cells, 12.5 μL Lipofectamine 2000 reagent (Invitrogen) was added to 250 μL Opti-MEM reduced serum media (Invitrogen) in a polypropylene tube and incubated for 20 minutes at RT. Meanwhile, for each well, 4 μg of PKCδ-GFP pDNA and 250 μL Opti-MEM reduced serum media was added to a separate polypropylene tube. 250 μL of the Lipofectamine 2000 suspension was added to the DNA suspension and the solution incubated for 30 minutes at RT. 500 μL of the Lipofectamine/DNA suspension was added to the respective wells of the 6-well plate. The cells were then incubated at 37° C. (5% CO2) for ˜24 hrs.
F-12+/+ was aspirated and cells were washed with F-12−/−. 2.4 mL of fresh F-12−/− was then added to each well, taking care not to disturb adherent cells. A 4 μg aliquot of PKCδ-GFP pDNA was added to PBS (pH 5.5, final volume 100 μL). 5.6 μL of DA 13:11 (2 mM stock in DMSO) was then added to the DNA solution, and the mixture was gently mixed (by flicking) for 20 seconds, at which point it was added directly to the respective wells of the 6-well plate. The cells were then incubated at 37° C. (5% C02) for ˜24 hrs.
After incubation, the media was aspirated and cells were washed with PBS (2.0 mL) and trypsinized (500 μL). The cell suspension was then diluted with 2.0 mL F-12+/+. 200 μL aliquots were added to 3 wells of a Lab-Tek II 4-well chambered coverglass slide (Fisher), producing 4 slides in total, each with three wells of cells. The cell suspension was directly diluted with 600 μL of additional F-12+/+. The resulting samples were incubated for ˜24 hrs. prior to imaging.
Fluorescent images were obtained using a Leica SP8 White Light Confocal microscope and the Leica AF software package. Prior to analysis, media was aspirated and 800 μL of PBS (Hyclone, without Ca^2+ or Mg^2+) supplemented with glucose (10 mM) was added to each well of the chambered coverglass slide. Bryostatin and bryostatin analogs were diluted to the appropriate concentration in 200 μL of 10 mM glucose in PBS. Cells were located for imaging and data was recorded for three wells in parallel, imaging at predetermined positions in each well using adaptive focus control. Cells were imaged at 30 second intervals following the addition of compound (set to t=0) for 20-40 minutes. Data were recorded at room temperature. Images were exported as .lif files and fluorescence intensity was analyzed using FIJI (NIH) software.

Bounds are passed on as bounds.

T2 sequence (Q05655 whole entry): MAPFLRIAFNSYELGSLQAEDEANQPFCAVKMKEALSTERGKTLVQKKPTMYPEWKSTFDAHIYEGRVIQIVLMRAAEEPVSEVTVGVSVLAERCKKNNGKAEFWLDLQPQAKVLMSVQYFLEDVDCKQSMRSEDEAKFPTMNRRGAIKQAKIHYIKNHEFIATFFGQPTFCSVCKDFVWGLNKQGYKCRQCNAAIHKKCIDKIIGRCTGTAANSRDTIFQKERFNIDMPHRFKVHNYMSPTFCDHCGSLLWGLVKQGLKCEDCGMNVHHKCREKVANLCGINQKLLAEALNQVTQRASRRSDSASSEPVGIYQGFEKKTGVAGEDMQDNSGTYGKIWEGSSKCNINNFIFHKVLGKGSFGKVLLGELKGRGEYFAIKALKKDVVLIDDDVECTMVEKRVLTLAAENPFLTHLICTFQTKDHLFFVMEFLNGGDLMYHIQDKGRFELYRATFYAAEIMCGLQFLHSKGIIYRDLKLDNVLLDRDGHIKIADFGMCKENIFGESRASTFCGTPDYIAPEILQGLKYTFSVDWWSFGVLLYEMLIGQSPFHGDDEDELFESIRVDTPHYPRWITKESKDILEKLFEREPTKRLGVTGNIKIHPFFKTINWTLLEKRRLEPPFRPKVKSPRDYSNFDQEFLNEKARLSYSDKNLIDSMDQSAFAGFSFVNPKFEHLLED
Description for NALM6 tumor cells: Mice were imaged using IVIS™ technology and luciferin-D IP injections.

Turning to `CCC/C=C/C=C/C(=O)O[C@H]1/C(=C/C(=O)OC)C[C@H]2C[C@H]([C@@H](C)O)OC(=O)C[C@H](O)C[C@@H]3C[C@H](OC(C)=O)C(C)(C)[C@](O)(C[C@@H]4C/C(=C/C(=O)OC)C[C@H](/C=C/C(C)(C)[C@]1(O)O2)O4)O3` [Bryostatin 1, reference compound], the “upregulated CD22 surface expression” value in experiment [1] and in experiment [2] was roughly 2 fold in each case. Also, the “durability of response to CD22 CAR T cell treatment” value with NALM6 tumor cells was “improves durability of response”. In addition, the Ki – broadly, the equilibrium dissociation constant of an inhibitor or competing ligand from its target – on PKCα came out at 0.8 nM. Also, in the experiment with PKC, the “binding affinity to PKC, in words” value is reported as “single digit nanomolar binder”. For the same compound, in experiment [3] (10 nM for 24 hours, then washed out and sub-cultured), the “time for which increased CD22 surface expression was sustained following treatment” value is “up to 7 days”. Besides, in experiment [3] (NALM6 cells incubated 24 hours, flow cytometry), the “increase in CD22 surface density” value is listed as greater than 2 fold.

With `CCCC=CC=CC(=O)OC1C(=CC(=O)OC)CC2CC(C(C)O)OC(=O)CC(O)CC3CC(OC(C)=O)C(C)(C)C(O)(CC4CC(=CC(=O)OC)CC(C=CC(C)(C)C1(O)O2)O4)O3` (stereo not drawn) [SUW201], the “upregulated CD22 surface expression” value in experiment [1] and in experiment [2] was roughly 2 fold throughout. In addition, the Ki on PKCα is 0.54 nM.

Regarding `CCCC=CC=CC(=O)OC1C(=CC(=O)OC)CC2CC(C(C)O)OC(=O)CC(O)CC3CC(OC(C)=O)C(C)(C)C(O)(CC4CC(OC(=O)CC56CC7CC(CC(C7)C5)C6)CC(C=CC(C)(C)C1(O)O2)O4)O3` (stereo not drawn) [SUW209], the Ki at PKCδ stood at 3.5 nM. Further, in the experiment with PKCδ-GFP fusion protein, the “activity in the PKC translocation assay at 200 nM” value was “inactive”, the “cytosolic PKC translocated to the plasma membrane” value is given as roughly 70%, the “concentration* (minimum effective concentration required to induce translocation of PKC-GFP to the membrane)” value is 1000 nM and the “% Translocation” value amounted to 60%. The Ki at PKCα came to 1.6 nM. In addition, the “binding affinity to PKC, in words” value in the experiment with PKC was “high affinity PKC binders”.

As for `CCCC=CC=CC(=O)OC1C(=CC(=O)OC)CC2CC(C(C)O)OC(=O)CC(O)CC3CC(OC(C)=O)C(C)(C)C(O)(CC4CC(OC(=O)CCc5c[nH]c6ccccc56)CC(C=CC(C)(C)C1(O)O2)O4)O3` (stereo not drawn) [SUW210], the Ki at PKCδ was 7.3 nM. In the experiment on PKCδ-GFP fusion protein, the “activity in the PKC translocation assay at 200 nM” value was “inactive”, the “cytosolic PKC translocated to the plasma membrane” value was roughly 70%, the “concentration* (minimum effective concentration required to induce translocation of PKC-GFP to the membrane)” value was 1000 nM and the “% Translocation” value is listed as 75%. On PKCα, the Ki is 5.6 nM. Moreover, in the experiment on PKC, the “binding affinity to PKC, in words” value was “high affinity PKC binders”.
